Measured values as given in patent US20250275938A1, “COMPOSITIONS AND METHODS FOR TREATMENT OF CANCER” (SCIROSBIO (FZC), priority 2022, published 2025).

How the values were obtained:
[1] = test system: HEK293T (Human Embryonic Kidney) cells; experiment: Trypan blue exclusion cytotoxicity on normal cell line; format: cell-based; conditions: treated at IC50 values determined in U87MG and C6, 24 hours
Procedure: Cytotoxicity on a normal cell line.
Furthermore, to check for the cytotoxicity of the drugs, a trypan blue dye exclusion assay was performed on a normal cell line, HEK293T, using the IC50 values of each drug, individually and in combination, as determined in U87MG and C6 cells and shown in Table 2.

[2] = test system: U87MG human glioma cells; experiment: AO/EtBr dual staining for apoptosis, U87MG; format: cell-based; conditions: respective IC50 concentrations
Source text: (§1) AO/EtBr are fluorescent nuclear stains, which distinguish between live and dead cells based on their membrane integrity. AO intercalates in the DNA of live cells imparting green shade to the nucleus as an indica-tor of viability. In the case of the dead cell, EtBr intercalates along with AO, resulting in an orange appearance, with an increased orange appearance corresponding to a concomitant increase in the number of dead cells and vice versa.
(§2) After the treatment period, monolayer cells were stained with AO/EtBr stain (1 mg/ml) and were visualized immediately under a fluorescence microscope (Axiovert, Carl Zeiss) at 20× magnification.

[3] = test system: C6 glioma cells; experiment: AO/EtBr dual staining for apoptosis, C6; format: cell-based, rat; conditions: respective IC50 concentrations
Source text: as §1, §2

[4] = test system: intracellular ROS in C6 cells; experiment: ROS activity by DCF-DA, C6; format: cell-based, rat; conditions: IC50 concentrations, vs control
Procedure: Determination of ROS activity by DCF-DA. U87MG and C6 cells were seeded at 5×10^3 cells/well in 96 well plates. […] After the treatment period, monolayer cells were stained with DCF-DA stain, and the absorbance was read at 530 nm spectrophotometrically (Molecular Devices Spectra-Max M5, USA). This method is commonly used in ROS investigations and is based on the application of H2DCFDA (acetylated form of DCF), which is consecutively deacetylated inside the cells by intracellular esterase.

[5] = test system: SOD, CAT, GPx, GSH in U87MG glioma cells; experiment: Antioxidant marker kits (SOD, CAT, GPx, GSH), U87MG; format: cell-based, human; conditions: vs control
Procedure: Antioxidant markers. […] All experiments were carried out according to the manufacturer's instructions. Three independent biological replicates were performed for each condition.

[6] = test system: U87MG glioma cells; experiment: Quantitative RT-PCR gene expression, U87MG; format: cell-based, human
Procedure: (§3) Quantitative RT-PCR analysis of antioxidant enzymes (SOD and CAT), oxidative stress marker (Nrf-2), and apoptosis markers (BCL2 and Caspase-9). Total RNA from all experimental groups was isolated using RNA Express reagent (HiMedia, India) and the respective cDNAs were synthesized using a Hi-c-DNA Synthesis Kit (HiMedia, India). Quantitative RT-PCR was carried out using a CFX 96 thermocycler (Bio-Rad, Hercules, CA) and TB Green Premix Ex Taq 1 (Takara Bio, Otsu, Japan) to detect mRNA. Independent experiments were conducted in triplicate. The cycle threshold (Ct), representing a positive PCR result, is defined as the cycle number at which a sample's fluorescence intensity crossed the threshold automatically determined by the CFX 96.
(§4) The relative changes in gene expression were calculated with the 2^−ΔΔCt method, wherein ΔΔCt=(Cttarget gene−Ctβ-actin) sample−([…]) calibrator.
(§5) The qPCR analyses were performed to measure the expression levels of genes associated with anti-Warburg effect. The total RNA was extracted from the cell lysates and brain tissues of all the experimental groups using TRIZOL reagent (Takara Bio, Shiga, Japan). Quantitative RT-PCR was carried out using a CFX96 Real Time PCR Detection System (Bio-Rad, California, USA) and TB Green Premix Ex Taq I (Takara Bio, Shiga, Japan) to detect messenger ribonucleic acid (mRNA).
Independent experiments were conducted in triplicate. The relative changes in gene expression were calculated with the 2^−ΔΔCt method, where ΔΔCt=Sample (Cttarget gene−Ctβ-actin)−Calibrator (Cttarget gene−Ctβ-actin).

[7] = test system: rat brain tissue; experiment: Gene expression (qRT-PCR) in brain tissue of glioma-induced rats; format: in vivo; conditions: i.p. 7 days; vs tumor-control
Procedure: as §3, §4
as §5, with “(mRNA). […]” for “(mRNA).”

[8] = test system: rat brain tissue; experiment: Western blotting and ELISA of brain tissue proteins; format: in vivo; conditions: i.p. 7 days
[9] = test system: human hepatocellular carcinoma (HepG2) cells; experiment: MTT cell viability assay, HepG2; format: cell-based; conditions: 24 hours
Procedure: Cell lines and culture conditions. A human hepatocellular carcinoma (HepG2) and ovarian cancer (SKOV3) cells were obtained from National Centre for Cell Science (NCCS), Pune, India. The cells HepG2 and SKOV3 were sub-cultured in Eagle's Minimum Essential Medium (EMEM) and McCoy's 5a supplemented with 10% FBS at 5% CO2 and 37° C. […] The cells were allowed to attach 70% to the surface prior to treatment. A stock solution of all the drugs (10 mg/ml) was made in distilled H2O and diluted to the required concentrations. Suspensions were aspirated 10 times before treatment. Cells treated with vehicle control were used as a control.

[10] = test system: human pancreatic cancer (PANC1) cells; experiment: MTT cell viability assay, PANC1; format: cell-based; conditions: 24 hours
Procedure: Cell lines and culture conditions: A human pancreatic cancer cell line PANC1 and human colon cancer cell line HCT116 were obtained from National Centre for Cell Science (NCCS), Pune, India. The PANC1 cells were sub-cultured in Dulbecco's Modified Eagle's Medium (DMEM) supplemented with 10% FBS at 5% C02 and 37° C. The HCT116 cells were sub-cultured in McCoy's 5A media supplemented with 10% FBS at 5% CO2 and 37° C. […] The cells were allowed to attach 70% to the surface prior to treatment. […] Suspensions were aspirated 10 times before treatment. Cells treated with vehicle control were used as a control. Cell viability assay: PANC1 and HCT116 cells ([…] cells/ml) were seeded in 96-well plates and exposed to different individual-drug treated groups with varying concentrations (0, 20, 40, 60, 80, 100, 120, 140, 160, 180 and 200 μM) for a period of 24 hours. The individual-treated groups include Group I: 5 Fluorouracil (5FU)-treated PANC1 and HCT116 cells; Group II: MET-treated PANC1 and HCT116 cells; Group III: EGCG-treated PANC1 and HCT116 cells and Group IV: 5FU+[…] PANC1 and HCT116 cells.

SMILES | toxicity in normal HEK293T cells [1] | apoptotic cell death (AO/EtBr) [2] | apoptotic cell death (AO/EtBr) ([2]; listed as E) | apoptotic cell death (AO/EtBr) [3] | apoptotic cell death (AO/EtBr) ([3]; listed as E) | intracellular ROS levels (DCF-DA fluorescence intensity) [4] | concentrations of antioxidant markers SOD, CAT, GPx, and GSH [5] | mRNA expression levels of BCL2 [6] | mRNA expression levels of Caspase-9 [6] | mRNA transcript levels of Nrf-2 [6] | mRNA transcripts of the antioxidant genes (SOD and CAT) [6] | gene expression levels of Nrf-2 and HIF-1α [7] | protein levels of HIF-1α [8] | protein levels of Nrf-2 [8] | cell viability (MTT), in words [9] | cell viability (MTT), in words [10] | apoptotic cell death (AO/EtBr) ([2]; hydrochloride) | apoptotic cell death (AO/EtBr) ([2]; listed as M, hydrochloride) | apoptotic cell death (AO/EtBr) ([3]; hydrochloride) | apoptotic cell death (AO/EtBr) ([3]; listed as M, hydrochloride)
O=C(O[C@@H]1Cc2c(O)cc(O)cc2O[C@@H]1c1cc(O)c(O)c(O)c1)c1cc(O)c(O)c(O)c1 [EGCG, [(2R,3R)-5,7-dihydroxy-2-(3,4,5-trihydroxyphenyl)-3,4-dihydro-2H-chromen-3-yl] 3,4,5-trihydroxybenzoate] | significant reduction in toxicity | did not produce any significant apoptotic activity | no apoptosis | did not produce any significant apoptotic activity | no apoptosis | increased significantly | significantly enhanced | not found to be statistically significant | not found to be statistically significant | did not have any significant effect | significant up-regulation | reduced expression | significantly reduced | significantly reduced | reduction in cell viability in a dose-dependent fashion | reduction in cell viability in a dose-dependent fashion | – | – | – | –
CN(C)C(=N)N=C(N)N.Cl [MET, 3-(diaminomethylidene)-1,1-dimethylguanidine; hydrochloride] | – | – | – | – | – | did not show much effect on ROS levels | – | not found to be statistically significant | not found to be statistically significant | did not have any significant effect | – | – | – | – | – | reduction in cell viability in a dose-dependent fashion | did not produce any significant apoptotic activity | no apoptosis but loss of cell membrane integrity | did not produce any significant apoptotic activity | no apoptosis but loss of cell membrane integrity
